Results from the NIST ThermoML archive (doi:10.1021/je300683r).
Numbers after ± are expanded uncertainties.

Tests used:
[1] = 293.15 K; 101.33 kPa; Liquid; Vibrating tube method
[2] = refractive index (Na D-line) (dimensionless); details: 293.15 K; 101.33 kPa; Liquid; Standard Abbe refractometry

CC(C)CO [2-methyl-1-propanol] gave a mass density [1] of 802 ± 1 kg/m3 and a refractive index [2] of 1.3955 ± 0.0008.
With CC(C)CCO [3-methylbutan-1-ol] the mass density [1] was 810.2 ± 1.1 kg/m3 and the refractive index [2] was 1.413 ± 0.0008.
With CCO [ethanol] the mass density [1] was 790 ± 1 kg/m3 and the refractive index [2] was 1.3616 ± 0.0012.
Molecule O [water] has a mass density [1] of 998.4 ± 1 kg/m3 and a refractive index [2] of 1.3328 ± 0.0007.
